The source of these data is PubChem BioAssay AID330 (DTP/NCI, 2004).

The test system of the experiment is P388 leukemia ip, CD2F1 mice, survival T/C. Kind of experiment: NCI In Vivo Anticancer Drug Screen. Data for tumor model P388 Leukemia (intraperitoneal) in CD2F1 (CDF1) mice. As to conditions: endpoint: median survival time, higher = longer survival. In short, it runs like this:
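Mice carrying the transplanted tumor received test compound or vehicle. Survival was recorded in each group, and the value is the treated-group measurement divided by that of the vehicle-treated control group.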

[1] abbreviates: dose: 50.0 mg/kg/injection, schedule: Q01DX005 (ip), vehicle: saline with Tween-80.
Setting [2] is: dose: 60.0 mg/kg/injection, schedule: Q01DX005 (ip), vehicle: Klucel (hydroxypropylcellulose) (HPC).
The mark [3] stands for this setting: dose: 120.0 mg/kg/injection, schedule: Q01DX005 (ip), vehicle: Klucel (hydroxypropylcellulose) (HPC).
[4] abbreviates: dose: 240.0 mg/kg/injection, schedule: Q01DX005 (ip), vehicle: Klucel (hydroxypropylcellulose) (HPC).
The mark [5] stands for this setting: dose: 50.0 mg/kg/injection, schedule: Q01DX005 (ip), vehicle: Klucel (hydroxypropylcellulose) (HPC).

Each structure is given as a SMILES string. Several values for one entry are separate records, joined by “and”; a condition that tells them apart may be missing. Equal entries are not always repeated. Inconclusive results and toxic doses are left out. Numbered stars: 1 amine (or outer) side, 2 acyl side, 3 side chain; on linkers, the order of the positions; unused ones are H or OH. Bridge positions count the residues as written; N and C are the ends. Square brackets hold non-standard residues; d marks the D form. Peptide text beside a SMILES is read from it. I, II: the chains in the order shown. * marks the point of attachment. ξ: configuration not given here. Quinaldoyl(3-OH,6-OMe) = COc1ccc2nc(C(=O)*)c(O)cc2c1; X12 = CCC(=O)OC1CC=NN([*:1])C1C(=O)[*:2]; X8 = CC(=O)OC1CC=NN([*:1])C1C(=O)[*:2]; ξNMeVal(3-OH) = CNC(C(=O)O)C(C)(C)O; Sar = CNCC(=O)O

On to `COc1cc2c(cc1O)N=C[C@@H]1CCC(O)N1C2=O` (mixture of isomers), for which the T/C was 96 % of control (dose: 1.0 mg/kg/injection, schedule: Q01DX009 (ip), vehicle: saline) and 104 % of control (dose: 2.0 mg/kg/injection, schedule: Q01DX009 (ip), vehicle: saline).

With `CCC(=O)OC1CC=NN2C(=O)C(NC(=O)c3nc4ccc(OC)cc4cc3O)COC(=O)C(C(C)(C)O)N(C)C(=O)CN(C)C(=O)CNC(=O)C3C(OC(C)=O)CC=NN3C(=O)C(NC(=O)c3nc4ccc(OC)cc4cc3O)COC(=O)C(C(C)(C)O)N(C)C(=O)CN(C)C(=O)CNC(=O)C12` (stereo not drawn) (I: {Quinaldoyl(3-OH,6-OMe)}-S[X12]G[Sar][ξNMeVal(3-OH)] / II: {Quinaldoyl(3-OH,6-OMe)}-S[X8]G[Sar][ξNMeVal(3-OH)]; ester I:1-II:C, I:C-II:1; configuration not given here), the T/C runs as follows: (dose: 20.0 micrograms/kg/injection, schedule: Q01DX005 (ip), vehicle: DMSO) 106 % of control; (dose: 40.0 micrograms/kg/injection, schedule: Q01DX005 (ip), vehicle: DMSO) 153 % of control; (dose: 80.0 micrograms/kg/injection, schedule: Q01DX005 (ip), vehicle: DMSO) 174 % of control; (dose: 160.0 micrograms/kg/injection, schedule: Q01DX005 (ip), vehicle: DMSO) 155 % of control.

In the case of `CCO/C(C)=N/NC(=O)c1n[nH]c2ccccc12`, the T/C is 92 % of control under setting [1]; 91 % of control (dose: 100.0 mg/kg/injection, schedule: Q01DX005 (ip), vehicle: saline with Tween-80); 90 % of control (dose: 200.0 mg/kg/injection, schedule: Q01DX005 (ip), vehicle: saline with Tween-80).

As to `C(#C[P+]1(c2ccccc2)C=C(c2ccccc2)OC(c2ccccc2)=C1)c1ccccc1`, the T/C is 107 % of control (dose: 12.5 mg/kg/injection, schedule: Q01DX005 (ip), vehicle: saline with Tween-80); 102 % of control (dose: 25.0 mg/kg/injection, schedule: Q01DX005 (ip), vehicle: saline with Tween-80); 107 % of control under setting [1].

For the compound `CC(C)=CC(C)(O)c1nc2ccccc2s1` (stereo not drawn), the T/C reads like this: under setting [2], 95 % of control; under setting [3], 93 % of control; under setting [4], 96 % of control.

In the case of `CC(C)SC(=O)C=C(c1ccccc1)c1ccccc1`, the T/C by setting is: (dose: 100.0 mg/kg/injection, schedule: Q01DX001 (ip), vehicle: Klucel (hydroxypropylcellulose) (HPC)) 95 % of control; (dose: 200.0 mg/kg/injection, schedule: Q01DX001 (ip), vehicle: Klucel (hydroxypropylcellulose) (HPC)) 96 % of control; (dose: 400.0 mg/kg/injection, schedule: Q01DX001 (ip), vehicle: Klucel (hydroxypropylcellulose) (HPC)) 100 % of control.

Take `CCCCCCCC(C)c1cc(N)c(C)cc1[N+](=O)[O-]` (stereo not drawn): the T/C reads like this: (dose: 25.0 mg/kg/injection, schedule: Q04DX002 (ip), vehicle: Klucel (hydroxypropylcellulose) (HPC)) 98 % of control; (dose: 50.0 mg/kg/injection, schedule: Q04DX002 (ip), vehicle: Klucel (hydroxypropylcellulose) (HPC)) 89 % of control.

Regarding `C=C(C)CCOS(=O)(=O)c1ccc(C)cc1`, the T/C (dose: 50.0 mg/kg/injection, schedule: Q01DX009 (ip), vehicle: saline with Tween-80) was 102 % of control; the T/C (dose: 100.0 mg/kg/injection, schedule: Q01DX009 (ip), vehicle: saline with Tween-80) was 110 % of control; the T/C (dose: 200.0 mg/kg/injection, schedule: Q01DX009 (ip), vehicle: saline with Tween-80) was 90 % of control.

On to `N#CC1N(C(=O)Oc2ccccc2)c2ccccc2N1C(=O)Oc1ccccc1`, for which the T/C runs as follows: (dose: 7.5 mg/kg/injection, schedule: Q01DX005 (ip), vehicle: saline with Tween-80) 92 % of control; (dose: 15.0 mg/kg/injection, schedule: Q01DX005 (ip), vehicle: saline with Tween-80) 91 % of control.

As for `Cc1ccc(OCC(O)CN2CCN(c3ccc(Cl)cc3)CC2)cc1` (stereo not drawn), the T/C (dose: 100.0 mg/kg/injection, schedule: Q01DX009 (ip), vehicle: saline sonified) is 100 % of control; the T/C (dose: 200.0 mg/kg/injection, schedule: Q01DX009 (ip), vehicle: saline sonified) is 95 % of control; the T/C (dose: 400.0 mg/kg/injection, schedule: Q01DX009 (ip), vehicle: saline sonified) was 90 % of control.

In the case of `O=P(c1ccccc1)(c1ccccc1)c1ccccc1` (tested in a mixture with another compound), the T/C (dose: 25.0 mg/kg/injection, schedule: Q01DX009 (ip), vehicle: other) is 89 % of control.

Consider `CC(=O)CC1(O)C(=O)C(C(C)(C)C)=CC2(C(C)(C)C)OC12` (stereo not drawn), for which the T/C by setting is: (dose: 50.0 mg/kg/injection, schedule: Q01DX009 (ip), vehicle: saline) 102 % of control; (dose: 100.0 mg/kg/injection, schedule: Q01DX009 (ip), vehicle: saline) 95 % of control; (dose: 200.0 mg/kg/injection, schedule: Q01DX009 (ip), vehicle: saline) 95 % of control.

`COc1ccc(OC)c(C2N(C)CCCN2C)c1`: the T/C is 95 % of control (dose: 6.25 mg/kg/injection, schedule: Q01DX009 (ip), vehicle: saline sonified); 90 % of control (dose: 12.5 mg/kg/injection, schedule: Q01DX009 (ip), vehicle: saline sonified); 100 % of control (dose: 25.0 mg/kg/injection, schedule: Q01DX009 (ip), vehicle: saline sonified).

Turning to `O=c1[nH]cn[nH]1`, the T/C (dose: 50.0 mg/kg/injection, schedule: Q01DX005 (ip), vehicle: saline) was 101 % of control; the T/C (dose: 100.0 mg/kg/injection, schedule: Q01DX005 (ip), vehicle: saline) is 98 % of control; the T/C (dose: 200.0 mg/kg/injection, schedule: Q01DX005 (ip), vehicle: saline) is 95 % of control.

As for `CCOC(=O)C1=C(C(C)=O)C(c2ccc(OC)c(OC)c2)C(C(C)=O)=C(C(=O)OCC)N1`, the T/C (dose: 60.0 mg/kg/injection, schedule: Q01DX005 (ip), vehicle: saline) is 102 % of control and the T/C (dose: 120.0 mg/kg/injection, schedule: Q01DX005 (ip), vehicle: saline) is 100 % of control.

Regarding `O=C(N/N=C/c1cc(Br)cc(Br)c1[O-])c1ccccc1.O=C(N/N=C/c1cc(Br)cc(Br)c1[O-])c1ccccc1.[Ni+2]`, the T/C is, setting by setting: (dose: 100.0 mg/kg/injection, schedule: Q01DX001 (ip), vehicle: saline with Tween-80) 90 % of control; (dose: 200.0 mg/kg/injection, schedule: Q01DX001 (ip), vehicle: saline with Tween-80) 90 % of control; (dose: 400.0 mg/kg/injection, schedule: Q01DX001 (ip), vehicle: saline with Tween-80) 94 % of control.

`COCCCNCC(=O)Nc1ccc(S(=O)(=O)c2ccc(NC(=O)CNCCCOC)cc2)cc1`: the T/C (dose: 50.0 mg/kg/injection, schedule: Q01DX005 (ip), vehicle: acid diluted with saline) is 107 % of control; the T/C (dose: 100.0 mg/kg/injection, schedule: Q01DX005 (ip), vehicle: acid diluted with saline) was 104 % of control; the T/C (dose: 200.0 mg/kg/injection, schedule: Q01DX005 (ip), vehicle: acid diluted with saline) was 112 % of control.

Regarding `O=C(O)c1nn(-c2ccc(Cl)cc2)c2c1C(=O)c1ccccc1C2=O`, the T/C is, setting by setting: (dose: 12.5 mg/kg/injection, schedule: Q01DX005 (ip), vehicle: Klucel (hydroxypropylcellulose) (HPC)) 98 % of control; (dose: 25.0 mg/kg/injection, schedule: Q01DX005 (ip), vehicle: Klucel (hydroxypropylcellulose) (HPC)) 91 % of control; under setting [5], 98 % of control and 89 % of control; (dose: 100.0 mg/kg/injection, schedule: Q01DX005 (ip), vehicle: Klucel (hydroxypropylcellulose) (HPC)) 92 % of control; (dose: 200.0 mg/kg/injection, schedule: Q01DX005 (ip), vehicle: Klucel (hydroxypropylcellulose) (HPC)) 103 % of control.

For `CCc1ncc(C(O)c2ccc(Cl)cc2)n1Cc1ccccc1` (stereo not drawn), the T/C under setting [2] is 93 % of control, the T/C under setting [3] was 93 % of control and the T/C under setting [4] is 90 % of control.

`CCOC(=O)c1cnc2c(OC)cccc2c1Nc1ccc2c(c1)OCO2`: the T/C is 101 % of control under setting [2], 97 % of control under setting [3] and 96 % of control under setting [4].

For the compound `CNCCC1CCCCC1`, the T/C under setting [5] is 110 % of control.

Regarding `O=S1(=O)C2C=CC1C(Br)C(Br)CC2` (stereo not drawn), the T/C runs as follows: (dose: 12.5 mg/kg/injection, schedule: Q01DX009 (ip), vehicle: Klucel (hydroxypropylcellulose) (HPC)) 102 % of control; (dose: 25.0 mg/kg/injection, schedule: Q01DX009 (ip), vehicle: Klucel (hydroxypropylcellulose) (HPC)) 100 % of control; (dose: 50.0 mg/kg/injection, schedule: Q01DX009 (ip), vehicle: Klucel (hydroxypropylcellulose) (HPC)) 89 % of control; (dose: 100.0 mg/kg/injection, schedule: Q01DX009 (ip), vehicle: Klucel (hydroxypropylcellulose) (HPC)) 96 % of control; (dose: 200.0 mg/kg/injection, schedule: Q01DX009 (ip), vehicle: Klucel (hydroxypropylcellulose) (HPC)) 98 % of control.
